From patent publication US20160009693A1, “HERBICIDAL COMPOUNDS” (SYNGENTA LIMITED, priority 2013, published 2016)

Legend:
Format in all cases: in vivo
Settings in all cases: applied at 1000 g/h, evaluated after 13 days
[1] = test system: Ipomoea hederacea (IPOHE); test: Herbicidal glasshouse test, pre-emergence, IPOHE
Solanum nigrum (SOLNI) [2] = test: Herbicidal glasshouse test, pre-emergence, SOLNI
Method in brief: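 Seeds of Solanum nigrum were sown in pots of standard soil and kept one day in a glasshouse at 24/16° C. day/night, 14 hours light and 65% humidity. For the pre-emergence treatment they were then sprayed with an aqueous solution of the active ingredient formulated in acetone/water (50:50) containing 0.5% Tween 20. Plant damage was rated after 13 days.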

Solanum nigrum (SOLNI) [3] = test: Herbicidal glasshouse test, post-emergence, SOLNI
[4] = test system: Ipomoea hederacea (IPOHE); test: Herbicidal glasshouse test, post-emergence, IPOHE
[5] = test system: Amaranthus retoflexus (AMARE); test: Herbicidal glasshouse test, pre-emergence, AMARE
Method in brief: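 Amaranthus retoflexus seeds were sown in pots of standard soil and kept one day in a glasshouse at 24/16° C. (day/night), 14 hours light and 65% humidity. They were then sprayed pre-emergence with the active ingredient in acetone/water (50:50) containing 0.5% Tween 20. Plants grew under the same conditions, watered twice daily, and percentage damage was scored after 13 days.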

[6] = test system: Echinochloa crus-galli (ECHCG); test: Herbicidal glasshouse test, post-emergence, ECHCG
Method in brief: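 Echinochloa crus-galli (ECHCG) seeds were sown in standard soil in pots and grown for 8 days in a glasshouse at 24/16° C. day/night, 14 hours light and 65% humidity. The young plants were then sprayed post-emergence with the active ingredient in acetone / water (50:50) containing 0.5% Tween 20. Damage was scored after 13 days.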

[7] = test system: Amaranthus retoflexus (AMARE); test: Herbicidal glasshouse test, post-emergence, AMARE
Method in brief: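 Amaranthus retoflexus (AMARE) seeds were sown in pots of standard soil and grown in a glasshouse at 24/16° C. day/night, 14 hours light and 65% humidity for 8 days. The plants were then sprayed post-emergence with an aqueous solution of the active ingredient in acetone/water (50:50) with 0.5% Tween 20. Damage was scored after 13 days.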

[8] = test system: Alopecurus myosuroides (ALOMY); test: Herbicidal glasshouse test, post-emergence, ALOMY
Setaria faberi (SETFA) [9] = test: Herbicidal glasshouse test, post-emergence, SETFA
Method in brief: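 Setaria faberi seeds were sown in standard soil in pots and grown for 8 days in a glasshouse at 24/16° C. day/night, 14 hours light and 65% humidity. The seedlings were then sprayed post-emergence with the active ingredient in acetone/water (50:50) containing 0.5% Tween 20. Afterwards they were kept under the same conditions, watered twice daily, and scored for percentage damage on a five point scale.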

[10] = test system: Alopecurus myosuroides (ALOMY); test: Herbicidal glasshouse test, pre-emergence, ALOMY
Setaria faberi (SETFA) [11] = test: Herbicidal glasshouse test, pre-emergence, SETFA
[12] = test system: Echinochloa crus-galli (ECHCG); test: Herbicidal glasshouse test, pre-emergence, ECHCG
Method in brief: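 Echinochloa crus-galli seeds were sown in standard soil in pots and grown for one day in a glasshouse at 24/16° C. day/night, 14 hours light and 65% humidity. Pre-emergence spraying used an aqueous solution of the active ingredient in acetone/water (50:50) with 0.5% Tween 20. Damage was scored after 13 days on a five point scale.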

Row | SMILES | PRE Application IPOHE, percentage damage (five point scale) [1] | PRE Application SOLNI, percentage damage (five point scale) (Solanum nigrum (SOLNI) [2]) | POST Application SOLNI, percentage damage (five point scale) (Solanum nigrum (SOLNI) [3]) | POST Application IPOHE, percentage damage (five point scale) [4] | PRE Application AMARE, percentage damage (five point scale) [5] | POST Application ECHCG, percentage damage (five point scale) [6] | POST Application AMARE, percentage damage (five point scale) [7] | POST Application ALOMY, percentage damage (five point scale) [8] | POST Application SETFA, percentage damage (five point scale) (Setaria faberi (SETFA) [9]) | PRE Application ALOMY, percentage damage (five point scale) [10] | PRE Application SETFA, percentage damage (five point scale) (Setaria faberi (SETFA) [11]) | PRE Application ECHCG, percentage damage (five point scale) [12]
1 | Cn1ncnc1NC(=O)c1cn(C)c(=O)n(-c2ccccc2)c1=O [Compound 2.003] | 5 (5=80-100%) | 4 (4=60-79%) | 2 (2=20-39%) | 2 (2=20-39%) | 2 (2=20-39%) | 1 (1=0-19%) | 1 (1=0-19%) | 1 (1=0-19%) | 1 (1=0-19%) | 1 (1=0-19%) | 3 (3=40-59%) | 1 (1=0-19%)
2 | CCn1nnnc1NC(=O)c1cn(C)c(=O)n(-c2cccc(F)c2)c1=O [Compound 4.003] | 3 (3=40-59%) | 4 (4=60-79%) | 5 (5=80-100%) | 2 (2=20-39%) | 5 (5=80-100%) | 1 (1=0-19%) | 5 (5=80-100%) | 2 (2=20-39%) | 1 (1=0-19%) | 2 (2=20-39%) | 1 (1=0-19%) | 1 (1=0-19%)
3 | CCCCn1c(=O)c(C(=O)Nc2nnnn2C)cn(C)c1=O [Compound 4.004] | 2 (2=20-39%) | 2 (2=20-39%) | 5 (5=80-100%) | 4 (4=60-79%) | 5 (5=80-100%) | 1 (1=0-19%) | 5 (5=80-100%) | 1 (1=0-19%) | 1 (1=0-19%) | 1 (1=0-19%) | 1 (1=0-19%) | 1 (1=0-19%)
4 | CCCn1nnnc1NC(=O)c1cn(C)c(=O)n(-c2cccc(F)c2)c1=O [Compound 4.005] | 4 (4=60-79%) | 5 (5=80-100%) | 5 (5=80-100%) | 5 (5=80-100%) | 4 (4=60-79%) | 2 (2=20-39%) | 5 (5=80-100%) | 3 (3=40-59%) | 1 (1=0-19%) | 1 (1=0-19%) | 1 (1=0-19%) | 2 (2=20-39%)
5 | Cn1ncnc1NC(=O)c1nn(C)c(=O)n(-c2ccccc2)c1=O [Compound 5.001] | 4 (4=60-79%) | 5 (5=80-100%) | 5 (5=80-100%) | 5 (5=80-100%) | 5 (5=80-100%) | 5 (5=80-100%) | 5 (5=80-100%) | 5 (5=80-100%) | 5 (5=80-100%) | 1 (1=0-19%) | 1 (1=0-19%) | 1 (1=0-19%)
6 | Cn1ncnc1NC(=O)c1nn(C)c(=O)n(-c2cccc(F)c2F)c1=O [Compound 5.002] | 5 (5=80-100%) | 5 (5=80-100%) | 5 (5=80-100%) | 5 (5=80-100%) | 5 (5=80-100%) | 5 (5=80-100%) | 5 (5=80-100%) | 5 (5=80-100%) | 5 (5=80-100%) | 3 (3=40-59%) | 2 (2=20-39%) | 3 (3=40-59%)
7 | CCCCn1c(=O)c(C(=O)Nc2ncnn2C)nn(C)c1=O [Compound 5.003] | 4 (4=60-79%) | 5 (5=80-100%) | 5 (5=80-100%) | 4 (4=60-79%) | 5 (5=80-100%) | 4 (4=60-79%) | 5 (5=80-100%) | 3 (3=40-59%) | 4 (4=60-79%) | 1 (1=0-19%) | 4 (4=60-79%) | 1 (1=0-19%)
8 | Cn1cnnc1NC(=O)c1nn(C)c(=O)n(-c2ccccc2)c1=O [Compound 6.001] | 1 (1=0-19%) | 5 (5=80-100%) | 5 (5=80-100%) | 5 (5=80-100%) | 5 (5=80-100%) | 5 (5=80-100%) | 5 (5=80-100%) | 3 (3=40-59%) | 3 (3=40-59%) | 1 (1=0-19%) | 5 (5=80-100%) | 1 (1=0-19%)
9 | Cn1cnnc1NC(=O)c1nn(C)c(=O)n(-c2cccc(F)c2F)c1=O [Compound 6.002] | 5 (5=80-100%) | 5 (5=80-100%) | 5 (5=80-100%) | 5 (5=80-100%) | 5 (5=80-100%) | 4 (4=60-79%) | 5 (5=80-100%) | 4 (4=60-79%) | 4 (4=60-79%) | 2 (2=20-39%) | 2 (2=20-39%) | 2 (2=20-39%)
10 | CCCCn1c(=O)c(C(=O)Nc2nncn2C)nn(C)c1=O [Compound 6.003] | 5 (5=80-100%) | 5 (5=80-100%) | 4 (4=60-79%) | 5 (5=80-100%) | 5 (5=80-100%) | 1 (1=0-19%) | 5 (5=80-100%) | 3 (3=40-59%) | 2 (2=20-39%) | 1 (1=0-19%) | 5 (5=80-100%) | 4 (4=60-79%)
